Source: patent US20230391821A1, “METHODS FOR TARGET RELEASE FROM INTEIN COMPLEXES” (MERCK PATENT GMBH, priority 2020, published 2023)

Legend:
[1] = test system: intein complex of 13 kDa intein-C tagged target (Thioredoxin) and intein-N ligand R44-358132; assay: Example 2-1: intein cleavage / tagless target release on intein-N column, Cleavage Buffer pH 7 with additives; type: biochemical, Escherichia coli (strain K12); conditions: 13 kDa target, versus Cleavage B.1
[2] = test system: intein complex of 13 kDa intein-C tagged target and intein-N ligand R44-358132; assay: Example 3: intein cleavage under capture conditions (pH 9), no pH shift; type: biochemical; conditions: 13 kDa target, versus Capture A.1
Method: A 13 kDa intein-C tagged target was pre-purified using Strep-II Tag purification as described in example 1 and was diluted to a concentration of 1 mg/mL. The intein-N resin prototype column was equilibrated with 10 CV Capture Buffer (100 mM Tris, 200 mM NaCl, pH 9). The pre-purified intein-C target was loaded with 5 CV to the prototype column under capture conditions (100 mM Tris, 200 mM NaCl, pH 9). The impurities were washed out with 10 CV Capture Buffer (100 mM Tris, 200 mM NaCl, pH 9). The Capture Buffer designated A.1 (100 mM Tris, 200 mM NaCl, pH 9) was used as a reference in this setup. […]
The two different Capture Buffers A.1 and A.2 were used in two consecutive purification cycles. The A280-Absorbance chromatograms were recorded and analyzed to determine the amount of protein recovered from the elution and the CIP phase.
The amount of eluted target recovered from the elution step 1 and elution step 2 were determined using the A280-Absorbance and the molecular extinction coefficient of the cleaved target. The total bound amount of intein-C tagged protein was calculated using the eluted target, and the remaining intein-C target, that was released during the cleaning phase together with the remained intein-C fragments. The yield of tagless released target during the elution phase was calculated per total bound intein-C target. […]

[3] = test system: intein complex of 13 kDa intein-C tagged target and intein-N ligand R46-358132; assay: Example 4: intein cleavage with 10 min residence time during elution, with and without pH shift; type: biochemical
Method: The intein-N resin prototype column, carrying a third generation of intein-N ligand (R46-358132) was used for five intein purifications. The improvement of intein cleavage through additives such as imidazole (Examples 2, 3) was studied under longer residence times, with and without introducing a pH shift during the elution phase.
One reference run (cycle 1) was accomplished as a reference run for that study, using 5 minutes residence time during the whole purification process (0.2 ml/min flow rate). Further, the intein-N resin prototype column was used in additional four consecutive cycles (cycles 2-5) where a combinatorial method flow rate was given. […]
Depending on the used buffer system during the elution phase, the amount of eluted tagless 13 kDa target was about 0.40-0.91 mg. […] The total intein-C bound protein was calculated using the eluted target and the remaining intein-C target, that was released during the cleaning phase together with the remained intein-C fragments. The amount of eluted target during elution step 1 and step 2 was calculated for all five cycles using the A280-Absorbance and the molecular extinction coefficient of the cleaved target.
The yield of tagless released target during the elution phase was calculated per total bound amount of intein-C target. […]

[4] = test system: intein complex of intein-C tagged hEPO (19 kDa) and intein-N ligand R46-358132; assay: Example 6: intein cleavage at pH 7, highly glycosylated target hEPO; type: biochemical, human; conditions: versus Cleavage B.1
[5] = test system: intein complex of intein-C tagged S1-RBD (26 kDa) and intein-N ligand R49-358132; assay: Example 6: intein cleavage at pH 7, highly glycosylated target S1-RBD; type: biochemical, SARS-CoV-2; conditions: versus Cleavage B.1

## c1c[nH]cn1 [imidazole]
[1]
  % improvement in yield (E1): up to 11.15%
[2]
  % improvement in yield (E1): 15.15%
[3]; 13 kDa target, elution 1 and 2, FIG. 9
  elution amount in A280 chromatogram compared with buffer without additive: higher elution amount
[3]; cycle 3 (B.2) versus cycle 1 (B.1, 0.2 ml/min), cycle 5 (A.2) versus cycle 4 (A.1)
  % improvement in yield (E1): 12.51%
[4]
  % improvement in yield (total): 12.22%
[5]
  % improvement in yield (total): 1.95%
